# Measured values as given in US20180217163A1, “TREATMENT OF NEURODEGENERATIVE CONDITIONS USING PKC ACTIVATORS AFTER DETERMINING THE PRESENCE OF THE APOE4 ALLELE” (priority 2015, published 2018).
# Experiments:
# [1] = target: T1, PKCε (Mus musculus, UniProt P16054); test: PKCε activation in brain of mice (FIG. 11); format: in vivo; conditions: single intravenous injection
# T1 construct: from tissue; host or cells: mouse brain
# T1 sequence (P16054 1-737): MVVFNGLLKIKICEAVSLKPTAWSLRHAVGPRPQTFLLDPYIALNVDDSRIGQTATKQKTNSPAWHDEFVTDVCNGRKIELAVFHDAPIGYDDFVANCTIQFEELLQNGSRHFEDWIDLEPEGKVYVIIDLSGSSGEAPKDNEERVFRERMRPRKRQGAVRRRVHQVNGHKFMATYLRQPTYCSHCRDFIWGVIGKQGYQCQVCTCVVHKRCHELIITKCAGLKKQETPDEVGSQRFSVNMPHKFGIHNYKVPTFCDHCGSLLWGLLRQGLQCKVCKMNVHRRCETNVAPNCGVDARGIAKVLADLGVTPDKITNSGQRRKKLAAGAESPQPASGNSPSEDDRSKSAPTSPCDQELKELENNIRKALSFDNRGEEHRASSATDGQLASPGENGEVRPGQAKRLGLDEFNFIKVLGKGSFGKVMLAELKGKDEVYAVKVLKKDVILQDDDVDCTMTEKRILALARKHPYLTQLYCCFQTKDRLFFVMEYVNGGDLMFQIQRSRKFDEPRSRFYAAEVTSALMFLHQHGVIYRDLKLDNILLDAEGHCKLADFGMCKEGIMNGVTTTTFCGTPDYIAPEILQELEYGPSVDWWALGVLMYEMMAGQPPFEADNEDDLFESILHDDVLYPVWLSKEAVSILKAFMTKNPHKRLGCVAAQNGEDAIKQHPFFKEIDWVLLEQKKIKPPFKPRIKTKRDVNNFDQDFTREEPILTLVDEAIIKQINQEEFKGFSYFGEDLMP
# [2] = target: T2, PKCε (Homo sapiens, UniProt Q02156); test: Phase IIa clinical trial: PKCε levels after bryostatin; format: in vivo
# T2 construct: from tissue; host or cells: blood of trial subjects
# T2 sequence (Q02156 1-737): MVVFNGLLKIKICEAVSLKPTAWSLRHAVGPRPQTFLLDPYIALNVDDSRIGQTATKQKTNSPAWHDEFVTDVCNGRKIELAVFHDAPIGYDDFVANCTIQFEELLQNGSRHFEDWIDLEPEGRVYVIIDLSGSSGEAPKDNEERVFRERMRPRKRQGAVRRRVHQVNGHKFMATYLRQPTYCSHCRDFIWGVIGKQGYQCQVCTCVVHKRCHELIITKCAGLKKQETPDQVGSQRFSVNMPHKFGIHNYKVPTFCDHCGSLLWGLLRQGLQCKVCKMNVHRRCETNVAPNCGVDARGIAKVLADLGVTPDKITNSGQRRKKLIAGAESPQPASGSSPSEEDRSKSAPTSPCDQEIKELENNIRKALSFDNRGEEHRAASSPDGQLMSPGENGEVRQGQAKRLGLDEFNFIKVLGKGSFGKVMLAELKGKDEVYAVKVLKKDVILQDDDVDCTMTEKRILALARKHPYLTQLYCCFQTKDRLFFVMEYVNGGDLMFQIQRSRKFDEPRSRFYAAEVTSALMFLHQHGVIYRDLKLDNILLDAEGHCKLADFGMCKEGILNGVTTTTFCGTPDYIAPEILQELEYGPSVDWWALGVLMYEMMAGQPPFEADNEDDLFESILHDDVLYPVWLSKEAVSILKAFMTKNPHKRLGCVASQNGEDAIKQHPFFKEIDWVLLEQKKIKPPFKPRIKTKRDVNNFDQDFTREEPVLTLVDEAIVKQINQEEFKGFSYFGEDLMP
# [3] = cited from earlier work
smiles,measurement,setting,value
CCC/C=C/C=C/C(=O)O[C@H]1/C(=C/C(=O)OC)C[C@H]2C[C@H]([C@@H](C)O)OC(=O)C[C@H](O)C[C@@H]3C[C@H](OC(C)=O)C(C)(C)[C@](O)(C[C@@H]4C/C(=C/C(=O)OC)C[C@H](/C=C/C(C)(C)[C@]1(O)O2)O4)O3 [Bryostatin-1],PKCε expression and levels in the brain,[1],activate PKCε expression and increase PKCε levels in the brain of mice
same,synthesis of PKCε,[2],increases the synthesis of PKCε
same,time of highest PKCε levels post administration,[2],1 h
same,t1/2 in the blood stream,[3]; blood,1 h
same,crossing of the blood-brain barrier,[3]; in vivo,crosses the blood-brain barrier
same,part of initial dose in the blood at 100 hrs,"[3]; intravenous injection, 100 hrs",1%
same,time detectable in the blood after a single injection,[3]; single injection,14 days
